{
  "source": "patent US12203089B2",
  "about": "“Plants having increased tolerance to herbicides” (BASF SE, priority 2015, dated 2025)",
  "type_in_all_cases": "in vivo",
  "key": {"[1]": {"system": "Arabidopsis thaliana expressing AtCesA3_S983F_S1040L (SEQ ID 3)", "test": "48-well plate growth inhibition, T2 seeds, tolerance factor", "conditions": "based on IC50 values of growth inhibition, seven to ten days after seeding", "experimental": "(§1) Transgenic Arabidopsis thaliana plants (T2) are assayed for improved tolerance to azine herbicides like e. g. 6-cyclopentyl-N4-(2,3,4,5,6-pentafluorophenyl)-1,3,5-triazine-2,4-diamine in 48-well plates. Therefore, T2 seeds are surface sterilized by stirring for 5 min in ethanol+water (70+30 by volume), rinsing one time with ethanol+water (70+30 by volume) and two times with sterile, deionized water. The seeds are resuspended in 0.1% agar dissolved in water (w/v) Four to five seeds per well are plated on solid nutrient medium consisting of half-strength murashige skoog nutrient solution, pH 5.8 (Murashige and Skoog (1962) Physiologia Plantarum 15: 473-497). Compounds are dissolved in dimethylsulfoxid (DMSO) and added to the medium prior solidification (final DMSO concentration 0.1%). Multi well plates are incubated in a growth chamber at 22° C., 75% relative humidity and 110 μmol Phot*m^−2*s^−1 with 14:10 h light:dark photoperiod. Growth inhibition is evaluated seven to ten days after seeding in comparison to wild type plants. Tolerance factors are calculated based on IC50 values of growth inhibition of transformed versus non-transformed Arabidopsis plants."}, "[2]": {"system": "Arabidopsis thaliana expressing AtCesA1_G1009D_G1013R (SEQ ID 1)", "test": "48-well plate growth inhibition, T2 seeds, tolerance factor", "conditions": "based on IC50 values of growth inhibition, seven to ten days after seeding", "experimental": "as §1"}, "[3]": {"system": "Arabidopsis thaliana expressing AtCesA3_wt (SEQ ID 3)", "test": "48-well plate growth inhibition, T2 seeds, tolerance factor", "conditions": "based on IC50 values of growth inhibition, seven to ten days after seeding", "experimental": "as §1"}, "[4]": {"system": "Arabidopsis thaliana expressing AtCesA1_wt (SEQ ID 1)", "test": "48-well plate growth inhibition, T2 seeds, tolerance factor", "conditions": "based on IC50 values of growth inhibition, seven to ten days after seeding", "experimental": "as §1"}, "[5]": {"system": "Arabidopsis thaliana expressing AtCesA3_S983F_S1037F (SEQ ID 3)", "test": "48-well plate growth inhibition, T2 seeds, tolerance factor", "conditions": "based on IC50 values of growth inhibition, seven to ten days after seeding", "experimental": "as §1"}, "Brassica napus wildtype": {"system": "Brassica napus wildtype", "test": "6-well plate injury test, seeds on vermiculite", "conditions": "7 days after treatment", "experimental": "(§2) Transgenic Brassica napus plants are assayed for improved tolerance to azine herbicides like e. g. 6-cyclopentyl-N4-(2,3,4,5,6-pentafluorophenyl)-1,3,5-triazine-2,4-diamine in 6-well plates. Therefore, 5-6 T1 seeds are sown on vermiculite and watered with half-strength murashige skoog nutrient solution, pH 5.8 (Murashige and Skoog (1962) Physiologia Plantarum 15: 473-497). Compounds are dissolved in dimethylsulfoxid (DMSO) and added to the medium (final DMSO concentration 0.1%). Multi well plates are incubated in a growth chamber at 22° C., 75% relative humidity and 110 μmol Phot*m^−2*s^−1 with 14: 10 h light: dark photoperiod. Growth inhibition is evaluated seven to ten days after seeding in comparison to wild type plants. Plant injury is rated on a scale of 0% to 100%, 0% being no injury and 100% being complete death."}, "[6]": {"system": "Brassica napus expressing BnaAnng01240D (SEQ ID 20) variant S1041L", "test": "6-well plate injury test, T1 seeds on vermiculite", "conditions": "7 days after treatment", "experimental": "as §2"}, "[7]": {"system": "Arabidopsis thaliana expressing AtCesA1_P1010L_G1013R (SEQ ID 1)", "test": "48-well plate growth inhibition, T2 seeds, tolerance factor", "conditions": "based on IC50 values of growth inhibition, seven to ten days after seeding", "experimental": "as §1"}},
  "data": [
    {"smiles": "Cc1cccc(-n2nc(C(N)=O)nc2-c2ccccc2)c1", "note": "[1-(m-tolyl)-5-phenyl-1,2,4-triazole-3-carboxamide, reference compound]", "values": [
      {"measurement": "Relative tolerance rate as compared to non-transgenic Arabidopsis plants (non-transgenic = 1.0)", "setting": "[1]", "result": 100},
      {"measurement": "Relative tolerance rate as compared to non-transgenic Arabidopsis plants (non-transgenic = 1.0)", "setting": "[2]", "result": 25},
      {"measurement": "Relative tolerance rate as compared to non-transgenic Arabidopsis plants (non-transgenic = 1.0)", "setting": "[3]", "result": 4},
      {"measurement": "Relative tolerance rate as compared to non-transgenic Arabidopsis plants (non-transgenic = 1.0)", "setting": "[4]", "result": 3},
      {"measurement": "Relative tolerance rate as compared to non-transgenic Arabidopsis plants (non-transgenic = 1.0)", "setting": "[5]", "result": 80}
    ]},
    {"smiles": "NC(=O)c1nc(-c2ccccc2)n(-c2ccc(Cl)c(COCC(F)(F)C(F)(F)F)c2)n1", "note": "[1-[4-chloro-3-(2,2,3,3,3-pentafluoropropoxymethyl)phenyl]-5-phenyl-1,2,4-triazole-3-carboxamide, reference compound]", "values": [
      {"measurement": "average phytotox value", "setting": "Brassica napus wildtype; 10^-4M", "result": 96, "unit": "%"},
      {"measurement": "average phytotox value", "setting": "Brassica napus wildtype; 10^-5M", "result": 93, "unit": "%"},
      {"measurement": "average phytotox value", "setting": "Brassica napus wildtype; 10^-6M", "result": 84, "unit": "%"},
      {"measurement": "average phytotox value", "setting": "Brassica napus wildtype; 10^-7M", "result": 41, "unit": "%"},
      {"measurement": "average phytotox value", "setting": "Brassica napus wildtype; 10^-8M", "result": 4, "unit": "%"},
      {"measurement": "average phytotox value", "setting": "[6]; BnaAnng01240D S1041L event 1, 10^-4M", "result": 95, "unit": "%"},
      {"measurement": "average phytotox value", "setting": "[6]; BnaAnng01240D S1041L event 1, 10^-5M", "result": 85, "unit": "%"},
      {"measurement": "average phytotox value", "setting": "[6]; BnaAnng01240D S1041L event 1, 10^-6M", "result": 80, "unit": "%"},
      {"measurement": "average phytotox value", "setting": "[6]; BnaAnng01240D S1041L event 1, 10^-7M", "result": 10, "unit": "%"},
      {"measurement": "average phytotox value", "setting": "[6]; BnaAnng01240D S1041L event 1, 10^-8M", "result": 0, "unit": "%"},
      {"measurement": "average phytotox value", "setting": "[6]; BnaAnng01240D S1041L event 2, 10^-4M", "result": 90, "unit": "%"},
      {"measurement": "average phytotox value", "setting": "[6]; BnaAnng01240D S1041L event 2, 10^-5M", "result": 90, "unit": "%"},
      {"measurement": "average phytotox value", "setting": "[6]; BnaAnng01240D S1041L event 2, 10^-6M", "result": 90, "unit": "%"},
      {"measurement": "average phytotox value", "setting": "[6]; BnaAnng01240D S1041L event 2, 10^-7M", "result": 0, "unit": "%"},
      {"measurement": "average phytotox value", "setting": "[6]; BnaAnng01240D S1041L event 2, 10^-8M", "result": 0, "unit": "%"},
      {"measurement": "Relative tolerance rate as compared to non-transgenic Arabidopsis plants (non-transgenic = 1.0)", "setting": "[7]", "result": 400}
    ]}
  ]
}
